Measured values from ChEMBL document CHEMBL1155525, “Substituted 2H-isoquinolin-1-one as potent Rho-Kinase inhibitors. Part 1: Hit-to-lead account” (Bioorg Med Chem Lett, 2010).
Converted amounts (≈) assume the structure as drawn.

Key:
in vivo [1] = details: rat
[2] = Solubility at pH 7.4; assay type: physicochemical; details: buffer
[3] = Oral bioavailability in rat at 10 mg/kg; assay type: ADME, organism-based; details: in vivo
in vivo [4] = details: rat, iv, 1 mg/kg
in vivo [5] = details: rat, plasma
in vitro [6] = details: human, liver microsomes
in vitro [7] = details: rat, liver microsomes

Row | SMILES | AUC (in vivo [1]) [ng·h/mL] | solubility [2] [µg/mL] | bioavailability [3] [%] | clearance (in vivo [4]) [mL/min/kg] | half-life (in vivo [5]) [min] | half-life (in vitro [6]) [min] | half-life (in vitro [7]) [min]
1 | CN(C)C(C(=O)Nc1cc2cc[nH]c(=O)c2cc1Cl)c1ccccc1 (stereo not drawn) | 30 | 6 (≈ 16.9 µM) | 2 | – | – | – | –
2 | O=C(Nc1cc2cc[nH]c(=O)c2cc1Cl)C(NC1CC1)c1ccccc1 (stereo not drawn) | 1290 | 16 (≈ 43.5 µM) | 64 | 82 | 162 | 21 | 7
3 | O=S(=O)(c1cccc2cnccc12)N1CCCNCC1 [FASUDIL] | – | > 60 | – | – | – | – | –
4 | C[C@@H](N)[C@H]1CC[C@H](C(=O)Nc2ccncc2)CC1.Cl.Cl | – | > 32 | – | – | – | > 90 | –
